Entries after “also recorded” stand apart in the source; their conditions may differ.
Assays:
Format in all cases: cell-based, rat
S2+ InsP3R-1 = assay: Potentiation of CCh-induced Ca2+ release after PKG activation (8-Br cGMP), S2+ InsP3R-1 constructs in DT-40 3ko cells; conditions: for effect of 8-Br cGMP treatment on CCh-induced Ca^2+ release: 10 μM 8-Br cGMP, threshold CCh; for Ca^2+ release after PKG activation: S2 + InsP3R-1 constructs, Table 2
Method: (§1) Transfected DT-40 3ko cells were washed once in a HEPES-buffered physiological saline solution (HEPES-PSS) containing (in mM) 5.5 glucose, 137 NaCl, 0.56 MgCl2, 4.7 KCl, 1 Na2HPO4, 10 HEPES (pH 7.4), 1.2 CaCl2 and 1% w/v Bovine Serum Albumin. Cells were then resuspended in BSA HEPES-PSS with 1 μM Fura-2 (AM), placed on a 15 mm glass coverslip in a low volume perfusion chamber (Warner Instruments) and allowed to adhere for 30 minutes at room temperature. Cells were perfused continually for 10 minutes with HEPES-PSS before experimentation to allow Fura-2 de-esterification. A field of cells for each experiment was chosen that contained a wide range of transfection efficiency based upon the intensity of red fluorescence emitted when excited at 560 nm. [Ca^2+]i imaging was performed essentially as previously described using an inverted epifluorescence Nikon microscope with a 40× oil immersion objective lens (numerical aperture, 1.3). Cells were excited alternately with light at 340 and 380 nm (±10 mn bandpass filters, Chroma) using a monochrometer (TILL Photonics). Fluorescence images were captured and digitized with a digital camera driven by TILL Photonics software. Images were captured every 2 seconds with an exposure of 35 ms and no binning. 340/380 ratio images were calculated online and stored immediately to hard disk.
The effects of treatment were determined by normalizing the peak change in fluorescence ratio by stimulation following forskolin or 8-Br cGMP exposure to that of stimulation in control HEPES-PSS. Thus, pooled data represents a normalized fold increase over control for the treated trial. Two tailed heteroscedastic t-tests with P values<0.05 were considered to have statistical significance.
Similar experiments were performed to assess the effects on Ca^2+ release of phosphorylating InsP3R-1 with PKG. Cells transfected with S2^+ InsP3R-1 together with M3 receptor and HcRed were stimulated with low, threshold concentrations of CCh (25-50 nM) followed by a 10 min treatment with 10 μM 8-Br cGMP, a specific activator of PKG [48]. […] In a similar fashion to PKA activation, this was manifested as an increase in the CCh-induced initial peak (FIG. 4A and pooled data FIG. 4E).
The effects of treatment were determined by normalizing the peak change in fluorescence ratio by stimulation following forskolin or 8-Br-cGMP exposure to that of stimulation in control HEPES-PSS. Thus, pooled data represent a normalized fold increase over control for the treated trial. In all cases where statistical significance is indicated, two-tailed heteroscedastic t tests were performed. P values<0.05 were considered to indicate statistical significance and are denoted by an asterisk in the figures.
Despite these differences, experiments were performed to define further the phosphorylation sites important for regulation of Ca^2+ release by PKG. […] In contrast, in cells expressing S2+SE no effect on CCh-induced Ca^2+ release following activation of PKG was observed (FIG. 23C and pooled data in FIG. 23D).

S2− InsP3R-1 [1] = assay: Potentiation of CCh-induced Ca2+ release after PKG activation (8-Br cGMP), S2− InsP3R-1 constructs in DT-40 3ko cells
Method: as §1, with “Cells were excited alternately with light at 340 and 380 nm (±10 mn bandpass filters, Chroma) using a monochrometer (TILL Photonics).” left out, “Images were captured every 2 seconds with an exposure of 35 ms and no binning.” left out
The effects of treatment were determined by normalizing the peak change in fluorescence ratio by stimulation following forskolin or 8-Br cGMP exposure to that of stimulation in control HEPES-PSS. […]

S2− InsP3R-1 [2] = assay: Potentiation of CCh-induced Ca2+ release after PKA activation (forskolin), S2− InsP3R-1 constructs in DT-40 3ko cells; conditions: low affinity indicator Fura-2-FF

Substance	effect of 8-Br cGMP treatment on CCh-induced Ca^2+ release (S2+ InsP3R-1)	Ca^2+ release after PKG activation (S2+ InsP3R-1)	effect of 8-Br cGMP treatment on CCh-induced Ca^2+ release (S2− InsP3R-1 [1]; 10 μM 8-Br cGMP)	Ca^2+ release after PKG activation (S2− InsP3R-1 [1]; S2 − InsP3R-1 constructs, Table 2)	fold potentiation of CCh-induced Ca^2+ release by forskolin (S2− InsP3R-1 [2])
S2+ES: S2+ InsP3R-1, long splice variant with S1589E	markedly potentiated	enhanced			
S2+SE: phosphomimetic S2+ InsP3R-1, long splice variant of S1755E	no effect; also recorded: no potentiation	no change			
S2−WT: wild-type rat type-1 InsP3 receptor, peripheral short S2− splice variant (SEQ ID NO: 17)			no effect	no change	~4.5 fold

Reference: patent US20080039410A1, “Inositol 1,4,5-Trisphosphate Receptor Mutants and Uses Thereof” (priority 2004, published 2008)
